What was measured:
[1] = tested on: relapsed and refractory multiple myeloma; conditions: Richardson et al. 2003, Phase 2; cited from earlier work
[2] = tested on: human tumor xenograft models; conditions: Albanell and Adams 2002; cited from earlier work
[3] = Comparative toxicity in wild-type mice (body weight, lethality); assay type: in vivo, CD1 wild type mice
Description: The effect of nanoparticles in mitigating the toxicity of bortezomib was examined in wild-type mice. Different doses of bortezomib alone (1.5, 3, 6, 9 and 12 mg/kg) or bortezomib-nanoparticles (NP) (0.9, 1.8, 3.6, 5.4 and 7.2 mg/kg) were injected into CD1 wild type. Three mice were used in each group of bortezomib alone and bortezomib-NP groups, body weights, food and water uptake were measured every day for 22 days.

In the case of `CC(C)C[C@H](NC(=O)[C@H](Cc1ccccc1)NC(=O)c1cnccn1)B(O)O` [bortezomib, N-2-pyrazinecarbonyl-L-phenylalanine-L-leucineboronic acid], the effectiveness in patients [1] is given as “effectiveness in treating relapsed and refractory multiple myeloma”, the antitumor activity [2] is given as “significant antitumor activity” and the survival ([3]; 6 mg/kg dose) is given as “two”. For the same compound, the survival ([3]; 9 mg/kg dose) was “died after Day 1”.
